Usually IC50 stands for the point on the concentration scale where inhibition reaches its midpoint. One may read the melting point as the temperature, or range, at which the solid turns liquid. As usually defined, the Ki is the equilibrium dissociation constant of an inhibitor or competing ligand from its target. Higher therefore signals a looser hold on the target.

Like-named read-outs stand apart in the source and are kept apart here. Bounds are passed on as bounds.

The record followed here is paper PMC9261963, “Synthesis and Biological Evaluation of 5-Fluoro-2-Oxindole Derivatives as Potential α-Glucosidase Inhibitors” (Frontiers in Chemistry, 2022).

Data set [1] has as its target T1, α-glucosidase from Saccharomyces cerevisiae (EC 3.2.1.20) (Saccharomyces cerevisiae, UniProt P53341).
T1 construct: purchased Sigma-Aldrich
The experiment in a line: biochemical. Particulars: for IC50 / inhibition at 100 µM / Inhibition rate at a concentration of 100 μM (%): p-NPG substrate; for IC50: pH 6.8, 37°C; for inhibition at 100 µM: read-out: Inhibition rate at a concentration of 100 μM (%), 100 μM compound; for Inhibition rate at a concentration of 100 μM (%): 100 μM compound; for Inhibitory activity, folds higher than acarbose: IC50 compared with acarbose.
Protocol: Then, the inhibitory activity of compounds (3a ∼ 3v) on α-glucosidase from S. cerevisiae was investigated using p-NPG as the substrate. First, the inhibitory activities of compounds (3a ∼ 3v) were screened at a concentration of 100 μM.
The α-glucosidase inhibition of synthetic compounds was performed as previously reported methods with minor modification ([Deng et al., 2022]) which is as follows: briefly, 130 μl of phosphate buffer (10 mM, pH 6.8), 10 μl of α-glucosidase (1 U/ml), and 10 μl of test compound solution were added into the wells of a 96-well plate, followed by incubation for 10 min at 37°C. Then, 50 μl of p-NPG (1 mM) was added, and the plate was further incubated for 30 min at 37°C. Finally, the absorbance of each well was recorded at 405 nm using a microplate reader. […] The inhibition of the test compound on α-glucosidase was calculated as follows: inhibition ratio (%) = [(A− B)/A] × 100, where A is the absorbance of blank and B is the absorbance of the test compound. Each concentration was experimented four times in parallel. Half inhibitory concentration (IC50) was obtained from the fitting curve of inhibition ratio vs. test compound with different concentrations.

For data set [2], the target named is T1, α-glucosidase from Saccharomyces cerevisiae (EC 3.2.1.20). Kind of data set: Kinetics mechanism analysis (enzyme activity vs enzyme concentration; Lineweaver–Burk plots). As to conditions: for Inhibition mechanism (inhibition type): Lineweaver–Burk plot analysis; for Ki: inhibition constant from slope vs inhibitor concentration (free enzyme); for K IS: inhibition constant from vertical intercept vs inhibitor concentration (enzyme–substrate complex); for Reversibility of inhibition: plots of enzyme activity vs enzyme concentration. It counts as biochemical. The method, then: In order to obtain the inhibition kinetics type of compounds 3d, 3f, and 3i, the Lineweaver–Burk plot analysis method was carried out with different concentrations of test compounds and substrates.
Compounds 3d, 3f, and 3i with much better α-glucosidase inhibitory activity were selected for kinetic analysis. The experiments were performed to investigate the kinetics mechanism of compounds 3d, 3f, and 3i by the previously reported method ([Xu et al., 2019]). To determine the inhibition mechanism, the final concentrations for 3d were 0, 40, 50, 60 μM, for 3f were 0, 40, 50, 60 μM, and for 3i were 0, 30, 40, 50 μM, the final substrate p-NPG concentration was 0.25 mM, and the final concentrations for α-glucosidase were 3.75 × 10^–2, 5.00 × 10^–2, 6.25 × 10^–2, and 7.50 × 10^–2 U/ml. Then, the inhibition rates were measured by the aforementioned method.
To analyze the inhibition type, the final concentrations for 3d were 0, 40, 50, and 60 μM, for 3f were 0, 40, 50, and 60 μM, and for 3i were 0, 30, 40, and 50 μM, the final α-glucosidase concentration was 5.00 × 10^–2 U/ml, and final concentrations for substrate p-NPG concentration were 0.25, 0.50, 0.75, and 1.00 mM. The inhibition rates were obtained by the aforementioned method. The inhibition type on α-glucosidase was analyzed by using Lineweaver–Burk plots of the inverse of velocities (1/v) vs. the inverse of substrate concentration 1/[S]. The K I and K IS were obtained from the slope and the vertical intercept vs. the inhibitor concentration, respectively.
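For IC50 (μM) in this document: Absorbance-based enzyme read-out, with each concentration tested in four parallel replicates.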
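For IC50 in this document: Absorbance-based enzyme read-out, with each concentration tested in four parallel replicates.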
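For Inhibition rate at a concentration of 100 μM (%) in this document: Absorbance-based enzyme read-out, with each concentration tested in four parallel replicates.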
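For Inhibitory activity, folds higher than acarbose in this document: Absorbance-based enzyme read-out, with each concentration tested in four parallel replicates.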

T1 sequence (P53341 whole entry): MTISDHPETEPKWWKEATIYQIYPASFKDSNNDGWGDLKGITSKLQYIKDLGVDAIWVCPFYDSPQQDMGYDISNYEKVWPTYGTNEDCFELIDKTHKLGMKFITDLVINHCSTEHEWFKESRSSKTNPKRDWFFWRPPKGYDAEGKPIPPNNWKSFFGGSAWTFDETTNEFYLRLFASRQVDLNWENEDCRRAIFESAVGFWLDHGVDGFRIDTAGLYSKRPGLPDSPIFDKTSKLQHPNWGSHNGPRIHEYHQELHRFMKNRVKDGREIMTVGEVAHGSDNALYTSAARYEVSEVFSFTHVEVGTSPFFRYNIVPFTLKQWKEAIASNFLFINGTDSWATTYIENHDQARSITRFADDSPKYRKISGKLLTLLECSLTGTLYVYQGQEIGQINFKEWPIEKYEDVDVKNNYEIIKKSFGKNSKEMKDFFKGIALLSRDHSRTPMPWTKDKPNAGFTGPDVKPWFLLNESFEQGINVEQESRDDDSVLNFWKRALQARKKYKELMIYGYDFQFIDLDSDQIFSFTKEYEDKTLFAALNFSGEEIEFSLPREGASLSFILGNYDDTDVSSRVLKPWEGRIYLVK

On to `O=C1Cc2cc(F)ccc2N1` [5-Fluoro-2-oxindole, 5-fluoro-2-oxindole], for which the IC50 in data set [1] (read-out: IC50) is 7510 µM.
`O=C1Nc2ccc(F)cc2/C1=C/c1ccccc1F` [Compound 3a, (Z)-5-Fluoro-3-(2-Fluorobenzylidene) Indolin-2-One] returned a melting point of 228.3 to 230.2 °C. Further, the IC50 in data set [1] (IC50 (μM)) was over 100 µM. Further, in data set [1], the inhibition at 100 µM stood at 7.29 ± 0.16%.
The like results for `O=C1Nc2ccc(F)cc2/C1=C/c1cccc(F)c1` [Compound 3b, (Z)-5-Fluoro-3-(3-Fluorobenzylidene) Indolin-2-One] were, in that order, 191.4 to 192.2 °C, over 100 µM and 5.19 ± 0.79%.
`O=C1Nc2ccc(F)cc2/C1=C/c1ccc(F)cc1` [Compound 3c, (Z)-5-Fluoro-3-(4-Fluorobenzylidene) Indolin-2-One] returned a melting point of 217 to 219.6 °C. In data set [1] (IC50 (μM)), this molecule yielded an IC50 of over 100 µM. Moreover, in data set [1], the inhibition at 100 µM was found to be 9.55 ± 0.13%.
With `O=C1Nc2ccc(F)cc2/C1=C/c1ccccc1Cl` [Compound 3d, (Z)-3-(2-Chlorobenzylidene)-5-Fluoroindolin-2-One], the melting point fell in the range of 219.7 to 221.9 °C. In addition, in data set [1], the “Inhibition rate at a concentration of 100 μM (%)” value (from here on “Inhibition rate … (%)”) turned out to be 89.19 ± 0.14%; the “Inhibitory activity, folds higher than acarbose” value was 10 ∼ 15 folds; the inhibition at 100 µM was about 90%. The same molecule came in with an IC50 in data set [1] (IC50 (μM)) of 49.9 ± 1.16 µM. In data set [2], the “Inhibition mechanism (inhibition type)” value is reported as “Mixed type”, the Ki was found to be 15 µM, the “K IS” value was found to be 453.85 µM and the Reversibility of inhibition entry is listed as “reversible”.
`O=C1Nc2ccc(F)cc2/C1=C/c1cccc(Cl)c1` [Compound 3e, (Z)-3-(3-Chlorobenzylidene)-5-Fluoroindolin-2-One]: the melting point fell in the range of 237.4 to 238.9 °C. Further, the IC50 in data set [1] (IC50 (μM)) was over 100 µM. Besides, the inhibition at 100 µM in data set [1] was 21.6 ± 0.78%.
`O=C1Nc2ccc(F)cc2/C1=C/c1ccc(Cl)cc1` [Compound 3f, (Z)-3-(4-Chlorobenzylidene)-5-Fluoroindolin-2-One] showed a melting point of 200.6 to 202.5 °C. Moreover, in data set [1], the “Inhibition rate … (%)” value is given as 90.52 ± 0.27%; the “Inhibitory activity, folds higher than acarbose” value was 10 ∼ 15 folds; the inhibition at 100 µM was about 90%. In data set [1] (IC50 (μM)), half-maximal inhibition (IC50) was put at 35.8 ± 0.98 µM. Moreover, in data set [2], the “Inhibition mechanism (inhibition type)” value was “Mixed type”, affinity was put at a Ki of 33.8 µM, the “K IS” value is 58.31 µM and the Reversibility of inhibition entry is “reversible”.
The molecule `O=C1Nc2ccc(F)cc2/C1=C/c1ccccc1Br` [Compound 3g, (Z)-3-(2-Bromobenzylidene)-5-Fluoroindolin-2-One] registered a melting point of 194.9 to 197.1 °C. In data set [1], the “Inhibition rate … (%)” value is recorded as 53.71 ± 0.47% and the inhibition at 100 µM is about 50%. The molecule also came in with an IC50 in data set [1] (IC50 (μM)) of 95.68 ± 0.28 µM.
Consider `O=C1Nc2ccc(F)cc2/C1=C/c1cccc(Br)c1` [Compound 3h, (Z)-3-(3-Bromobenzylidene)-5-Fluoroindolin-2-One], for which the melting point lay within 222.6 to 223.8 °C. In data set [1] (IC50 (μM)), this molecule gave an IC50 of over 100 µM. Besides, in data set [1], the inhibition at 100 µM was found to be 31.61 ± 0.21%.
As to `O=C1Nc2ccc(F)cc2/C1=C/c1ccc(Br)cc1` [Compound 3i, (Z)-3-(4-Bromobenzylidene)-5-Fluoroindolin-2-One], the melting point fell in the range of 249.3 to 251.6 °C. For the same molecule, in data set [1], the “Inhibition rate … (%)” value turned out to be 92.86 ± 0.32%; the “Inhibitory activity, folds higher than acarbose” value was 10 ∼ 15 folds; the inhibition at 100 µM is about 90%. Further, in data set [1] (IC50 (μM)), the IC50 was found to be 56.87 ± 0.42 µM. In addition, in data set [2], the “Inhibition mechanism (inhibition type)” value is reported as “Mixed type”, the Ki stood at 22.7 µM, the “K IS” value came to 24.74 µM and the Reversibility of inhibition result is “reversible”.
Turning to `COc1ccccc1/C=C1\C(=O)Nc2ccc(F)cc21` [Compound 3j, (Z)-5-Fluoro-3-(2-Methoxybenzylidene) Indolin-2-One], the melting point was in the range of 227.1 to 227.8 °C. This molecule also registered an IC50 in data set [1] (IC50 (μM)) of over 100 µM. The inhibition at 100 µM in data set [1] was 19.2 ± 1.21%.
Molecule `COc1cccc(/C=C2\C(=O)Nc3ccc(F)cc32)c1` [Compound 3k, (Z)-5-Fluoro-3-(3-Methoxybenzylidene) Indolin-2-One] gave a melting point of 200.1 to 202.1 °C. The molecule also displayed a 50% inhibitory concentration (IC50) in data set [1] (IC50 (μM)) of over 100 µM. For the same molecule, the inhibition at 100 µM in data set [1] turned out to be 27.2 ± 1.47%.
The like results for `COc1ccc(/C=C2\C(=O)Nc3ccc(F)cc32)cc1` [Compound 3l, (Z)-5-Fluoro-3-(4-Methoxybenzylidene) Indolin-2-One] were, in that order, 358.8 to 359.9 °C, over 100 µM and 15.7 ± 0.71%.
Regarding `O=C1Nc2ccc(F)cc2/C1=C/c1ccccc1C(F)(F)F` [Compound 3m, (Z)-5-Fluoro-3-[2-(Trifluoromethyl) Benzylidene) Indolin-2-One], the melting point lay within 235.2 to 236.4 °C. Besides, in data set [1] (read-out: IC50), the IC50 was over 100 µM. Moreover, the inhibition at 100 µM in data set [1] worked out at 8.43 ± 1.14%.
`O=C1Nc2ccc(F)cc2/C1=C/c1cccc(C(F)(F)F)c1` [Compound 3n, (Z)-5-Fluoro-3-[3-(Trifluoromethyl) Benzylidene] Indolin-2-One] registered a melting point of 199.7 to 200.5 °C. In data set [1], the “Inhibition rate … (%)” value amounted to 52.79 ± 1.68% and the inhibition at 100 µM is about 50%. Besides, the IC50 in data set [1] (IC50 (μM)) came out at 96.78 ± 0.72 µM.
For the molecule `O=C1Nc2ccc(F)cc2/C1=C/c1ccc(F)cc1F` [Compound 3o, (Z)-3-(2,4-Difluorobenzylidene)-5-Fluoroindolin-2-One], the melting point lay within 221.1 to 224.3 °C. Also, in data set [1] (IC50 (μM)), the IC50 is over 100 µM. In addition, in data set [1], the inhibition at 100 µM was found to be 18.8 ± 1.15%.
For the molecule `O=C1Nc2ccc(F)cc2/C1=C/c1ccccc1` [Compound 3q, (Z)-3-Benzylidene-5-Fluoroindolin-2-One], in data set [1] (IC50 (μM)), the IC50 is over 100 µM. Besides, the inhibition at 100 µM in data set [1] came to 10 ± 1.75%.
In turn, `CSc1ccc(/C=C2\C(=O)Nc3ccc(F)cc32)cc1` [Compound 3r, (Z)-5-Fluoro-3-[4-(Methylthio) Benzylidene] Indolin-2-One] registered a melting point of 246.1 to 247.1 °C. Besides, in data set [1], the “Inhibition rate … (%)” value is on record as 60.8 ± 1.27% and the inhibition at 100 µM is about 50%. Moreover, the IC50 in data set [1] (IC50 (μM)) turned out to be 90.6 ± 1.87 µM.
`O=C1Nc2ccc(F)cc2/C1=C/c1ccco1` [Compound 3s, (Z)-5-Fluoro-3-(Furan-2-ylmethylene) Indolin-2-One] showed a melting point of 237.9 to 238.8 °C. In addition, the IC50 in data set [1] (IC50 (μM)) was over 100 µM. Also, the inhibition at 100 µM in data set [1] was found to be 4.49 ± 1.88%.
In data set [1] (IC50 (μM)), `O=C1Nc2ccc(F)cc2/C1=C/c1cccs1` [Compound 3t, (Z)-5-Fluoro-3-(Thiophen-2-ylmethylene) Indolin-2-One] yielded an IC50 of over 100 µM. Moreover, in data set [1], the inhibition at 100 µM is 5.67 ± 1.11%.
The like results for `O=C1Nc2ccc(F)cc2/C1=C/c1ccc[nH]1` [Compound 3u, (Z)-3-[(1H-Pyrrol-2-yl)methylene]-5-Fluoroindolin-2-One] were, in that order, over 100 µM and 3.77 ± 1.35%.
`O=C1Nc2ccc(F)cc2/C1=C/c1ccccn1` [Compound 3v, (Z)-5-Fluoro-3-(Pyridin-2-ylmethylene) Indolin-2-One] had a melting point of 248.5 to 251.2 °C. The molecule further came in with an IC50 in data set [1] (IC50 (μM)) of over 100 µM. Moreover, the inhibition at 100 µM in data set [1] was 3.99 ± 1.28%.
“(Z)-3-(3,4-Difluorobenzylidene)-5-Fluoroindolin-2-One [Compound 3p]”: the “Inhibition rate … (%)” value in data set [1] is recorded as 55.89 ± 1.71%. In addition, in data set [1] (read-out: IC50), the IC50 amounted to 92.62 ± 0.45 µM.
